From patent publication US9351965B2, “Indazole derivatives useful as ERK inhibitors” (Merck Sharp & Dohme Corp., priority 2010, dated 2016)
pIC50: −log10 of the molar value.

Target: fully phosphorylated, active Mouse ERK2 protein (Mus musculus (Mouse), UniProt P63085)
Test: Active ERK2 (aERK) IMAP assay
Assay type: biochemical
Details: IMAP fluorescence polarization; 30 μM ATP; 30 minute pre-incubation

Sequence of fully phosphorylated, active Mouse ERK2 protein (P63085 whole entry): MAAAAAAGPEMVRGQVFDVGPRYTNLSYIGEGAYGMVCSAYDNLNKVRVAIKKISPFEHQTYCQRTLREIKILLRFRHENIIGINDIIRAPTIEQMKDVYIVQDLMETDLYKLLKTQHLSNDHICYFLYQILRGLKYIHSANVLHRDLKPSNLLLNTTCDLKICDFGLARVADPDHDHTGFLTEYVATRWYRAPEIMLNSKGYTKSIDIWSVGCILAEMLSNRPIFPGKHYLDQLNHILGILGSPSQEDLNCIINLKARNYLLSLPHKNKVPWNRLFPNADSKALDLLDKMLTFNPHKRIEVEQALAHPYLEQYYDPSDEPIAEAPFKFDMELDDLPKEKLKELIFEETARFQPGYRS

| Structure (SMILES) | pIC50 |
| --- | --- |
| O=C(NC1CCCC(Cn2cccn2)C1)c1ccc2[nH]nc(-c3ccc4nccn4c3)c2c1 (stereo not shown) [compound 110, 3-imidazo[1,2-a]pyridin-6-yl-N-[3-(1H-pyrazol-1-ylmethyl)cyclohexyl]-1H-indazole-5-carboxamide] | 7.13 |
| O=C(NC1CCCC(Cn2cncn2)C1)c1ccc2[nH]nc(-c3ccc4nccn4c3)c2c1 (stereo not shown) [compound 111, 3-imidazo[1,2-a]pyridin-6-yl-N-[3-(1H-1,2,4-triazol-1-ylmethyl)cyclohexyl]-1H-indazole-5-carboxamide] | 7.11 |
| Cc1nc2ccc(-c3n[nH]c4ccc(C(=O)NC5CCCC(Cn6cc(C#N)c7ccccc76)C5)cc34)cc2s1 (stereo not shown) [compound 112, N-[3-[(3-cyano-1H-indol-1-yl)methyl]cyclohexyl]-3-(2-methyl-6-benzothiazolyl)-1H-indazole-5-carboxamide] | 6.00 |
| Cc1cc(-c2n[nH]c3ccc(C(=O)NC4CCCC(Cn5cc6cccnc6n5)C4)cc23)ccn1 (stereo not shown) [compound 113, 3-(2-methyl-4-pyridinyl)-N-[3-(2H-pyrazolo[3,4-b]pyridin-2-ylmethyl)cyclohexyl]-1H-indazole-5-carboxamide] | 6.79 |
| Cc1cc(-c2n[nH]c3ccc(C(=O)NC4CCCC(Cn5ncc6cccnc65)C4)cc23)ccn1 (stereo not shown) [compound 114, 3-(2-methyl-4-pyridinyl)-N-[3-(1H-pyrazolo[3,4-b]pyridin-1-ylmethyl)cyclohexyl]-1H-indazole-5-carboxamide] | 7.81 |
| Cc1cc(-c2n[nH]c3ccc(C(=O)NC4CCCC(Cn5ncc6ccncc65)C4)cc23)ccn1 (stereo not shown) [compound 115, 3-(2-methyl-4-pyridinyl)-N-[3-(1H-pyrazolo[3,4-c]pyridin-1-ylmethyl)cyclohexyl]-1H-indazole-5-carboxamide] | 7.47 |
| Cc1cc(-c2n[nH]c3ccc(C(=O)NC4CCCC(Cn5c(C)nc6cnccc65)C4)cc23)ccn1 (stereo not shown) [compound 116, N-[3-[(2-methyl-1H-imidazo[4,5-c]pyridiN-1-yl)methyl]cyclohexyl]-3-(2-methyl-4-pyridinyl)-1H-indazole-5-carboxamide] | 6.00 |
| Cc1cc(-c2n[nH]c3ccc(C(=O)NC4CCCC(Cn5cnc6ncccc65)C4)cc23)ccn1 (stereo not shown) [compound 117, N-[3-(1H-imidazo[4,5-b]pyridin-1-ylmethyl)cyclohexyl]-3-(2-methyl-4-pyridinyl)-1H-indazole-5-carboxamide] | 7.06 |
| Cc1cc(-c2n[nH]c3ccc(C(=O)NC4CCCC(Cn5cnc6cccnc65)C4)cc23)ccn1 (stereo not shown) [compound 118, N-[3-(3H-imidazo[4,5-b]pyridin-3-ylmethyl)cyclohexyl]-3-(2-methyl-4-pyridinyl)-1H-indazole-5-carboxamide] | 7.22 |
| Cc1cc(-c2n[nH]c3ccc(C(=O)NC4CCCC(Cn5ncc6cnccc65)C4)cc23)ccn1 (stereo not shown) [compound 119, 3-(2-methyl-4-pyridinyl)-N-[3-(1H-pyrazolo[4,3-c]pyridin-1-ylmethyl)cyclohexyl]-1H-indazole-5-carboxamide] | 6.28 |
| Cc1cc(-c2n[nH]c3ccc(C(=O)NC4CCCC(CN5C(=O)Cc6ccccc65)C4)cc23)ccn1 (stereo not shown) [compound 120, N-[3-[(2,3-dihydro-2-oxo-1H-indol-1-yl)methyl]cyclohexyl]-3-(2-methyl-4-pyridinyl)-1H-indazole-5-carboxamide] | 7.76 |
| Cc1cc(-c2n[nH]c3ccc(C(=O)NC4CCCC(Cn5c(=O)ccc6ccccc65)C4)cc23)ccn1 (stereo not shown) [compound 121, 3-(2-methyl-4-pyridinyl)-N-[3-[(2-oxo-1(2h)-quinolinyl)methyl]cyclohexyl]-1H-indazole-5-carboxamide] | 7.43 |
| Cc1cc(-c2n[nH]c3ccc(C(=O)NC4CCCC(Cn5cc6ccccc6n5)C4)cc23)ccn1 (stereo not shown) [compound 122, N-[3-(2H-indazol-2-ylmethyl)cyclohexyl]-3-(2-methyl-4-pyridinyl)-1H-indazole-5-carboxamide] | 7.84 |
| Cc1cc(-c2n[nH]c3ccc(C(=O)NC4CCCC(Cn5ncc6ccccc65)C4)cc23)ccn1 (stereo not shown) [compound 123, N-[3-(1H-indazol-1-ylmethyl)cyclohexyl]-3-(2-methyl-4-pyridinyl)-1H-indazole-5-carboxamide] | 7.97 |
| Cc1nc2ccc(-c3n[nH]c4ccc(C(=O)NC5CCCC(Cn6c(C)nc7ccccc76)C5)cc34)cc2s1 (stereo not shown) [compound 127, N-[3-[(2-methyl-1H-benzimidazol-1-yl)methyl]cyclohexyl]-3-(2-methyl-6-benzothiazolyl)-1H-indazole-5-carboxamide] | 6.00 |
| Cc1cc(-c2n[nH]c3ccc(C(=O)NC4CCCC(CO)(Cc5c(F)cccc5F)C4)cc23)ccn1 (stereo not shown) [compound 129, N-[3-[(2,6-difluorophenyl)methyl]-3-(hydroxymethyl)cyclohexyl]-3-(2-methyl-4-pyridinyl)-1H-indazole-5-carboxamide] | 6.20 |

The remaining lines, values ahead:

| pIC50 | Structure (SMILES) |
| --- | --- |
| 6.65 | Cc1cc(-c2n[nH]c3ccc(C(=O)NC4CCCC(CO)(Cc5ccccc5)C4)cc23)ccn1 (stereo not shown) [compound 132, N-[3-(hydroxymethyl)-3-(phenylmethyl)cyclohexyl]-3-(2-methyl-4-pyridinyl)-1H-indazole-5-carboxamide] |
| 6.96 | Cc1cc(-c2n[nH]c3ccc(C(=O)NC4CCCC(CO)(Cc5ccccc5F)C4)cc23)ccn1 (stereo not shown) [compound 133, N-[3-[(2-fluorophenyl)methyl]-3-(hydroxymethyl)cyclohexyl]-3-(2-methyl-4-pyridinyl)-1H-indazole-5-carboxamide] |
| 6.36 | Cc1cc(-c2n[nH]c3ccc(C(=O)NC4CCCC(CO)(Cc5ccc(F)cc5F)C4)cc23)ccn1 (stereo not shown) [compound 134, N-[3-[(2,4-difluorophenyl)methyl]-3-(hydroxymethyl)cyclohexyl]-3-(2-methyl-4-pyridinyl)-1H-indazole-5-carboxamide] |
| 6.45 | Cc1cc(-c2n[nH]c3ccc(C(=O)NC4CCCC(CO)(Cc5ccc(F)cc5)C4)cc23)ccn1 (stereo not shown) [compound 135, N-[3-[(4-fluorophenyl)methyl]-3-(hydroxymethyl)cyclohexyl]-3-(2-methyl-4-pyridinyl)-1H-indazole-5-carboxamide] |
| 6.52 | Cc1cc(-c2n[nH]c3ccc(C(=O)NC4CCCC(Cc5ccc(F)cc5)(C(=O)O)C4)cc23)ccn1 (stereo not shown) [compound 136, 1-[(4-fluorophenyl)methyl]-3-[[[3-(2-methyl-4-pyridinyl)-1H-indazol-5-yl]carbonyl]amino]cyclo-hexanecarboxylic acid] |
| 6.35 | Cc1cc(-c2n[nH]c3ccc(C(=O)NC4CCCC(CO)(Cc5c(F)cccc5F)C4)cc23)ccn1 (stereo not shown) [compound 137, N-[3-[(2,6-difluorophenyl)methyl]-3-(hydroxymethyl)cyclohexyl]-3-(2-methyl-4-pyridinyl)-1H-indazole-5-carboxamide] |
| 7.72 | Cc1cc(-c2n[nH]c3ccc(C(=O)NC4CCC(CO)(Cc5ccccc5F)C4)cc23)ccn1 (stereo not shown) [compound 138, N-[3-[(2-fluorophenyl)methyl]-3-(hydroxymethyl)cyclopentyl]-3-(2-methyl-4-pyridinyl)-1H-indazole-5-carboxamide] |
| 7.19 | Cc1cc(-c2n[nH]c3ccc(C(=O)NC4CCC(CO)(Cc5ccccc5F)C4)cc23)ccn1 (stereo not shown) [compound 139, N-[3-[(2-fluorophenyl)methyl]-3-(hydroxymethyl)cyclopentyl]-3-(2-methyl-4-pyridinyl)-1H-indazole-5-carboxamide] |
| 7.50 | Cc1cc(-c2n[nH]c3ccc(C(=O)NN4CCCC(Oc5ccccc5Cl)C4)cc23)ccn1 (stereo not shown) [compound 140, N-[3-(2-chlorophenoxy)-1-piperidinyl]-3-(2-methyl-4-pyridinyl)-1H-indazole-5-carboxamide] |
| 7.07 | Cc1cc(-c2n[nH]c3ccc(C(=O)NN4CCCC(Oc5ccccc5Cl)C4)cc23)ccn1 (stereo not shown) [compound 141, N-[3-(2-chlorophenoxy)-1-piperidinyl]-3-(2-methyl-4-pyridinyl)-1H-indazole-5-carboxamide] |
| 6.82 | Cc1cc(-c2n[nH]c3ccc(C(=O)NN4CCCC(Oc5ccccc5F)C4)cc23)ccn1 (stereo not shown) [compound 142, N-[3-(2-fluorophenoxy)-1-piperidinyl]-3-(2-methyl-4-pyridinyl)-1H-indazole-5-carboxamide] |
| 7.57 | Cc1cc(-c2n[nH]c3ccc(C(=O)NN4CCCC(Oc5ccccc5F)C4)cc23)ccn1 (stereo not shown) [compound 143, N-[3-(2-fluorophenoxy)-1-piperidinyl]-3-(2-methyl-4-pyridinyl)-1H-indazole-5-carboxamide] |
| 6.30 | CC(C)Oc1ccc(-c2n[nH]c3ccc(C(=O)NN4CCCC4CCc4ccccc4)cc23)cn1 (stereo not shown) [compound 144, 3-[6-(1-methylethoxy)-3-pyridinyl]-N-[2-(2-phenylethyl)-1-pyrrolidinyl]-1H-indazole-5-carboxamide] |
| 7.54 | Cc1cc(-c2n[nH]c3ccc(C(=O)NN4CCCC4CCc4ccccc4)cc23)ccn1 (stereo not shown) [compound 145, 3-(2-methyl-4-pyridinyl)-N-[2-(2-phenylethyl)-1-pynolidinyl]-1H-indazole-5-carboxamide] |
| 6.00 | CC(C)Oc1cc(-c2n[nH]c3ccc(C(=O)NN4CCCC4CCc4ccccc4)cc23)ccn1 (stereo not shown) [compound 146, 3-[2-(1-methylethoxy)-4-pyridinyl]-N-[2-(2-phenylethyl)-1-pyrrolidinyl]-1H-indazole-5-carboxamide] |
| 6.41 | Cc1cc(-c2n[nH]c3ccc(C(=O)NN4CCCC(CO)(Oc5cc(F)ccc5F)C4)cc23)ccn1 (stereo not shown) [compound 147, N-[3-(2,5-difluorophenoxy)-3-(hydroxymethyl)-1-piperidinyl]-3-(2-methyl-4-pyridinyl)-1H-indazole-5-carboxamide] |
| 6.35 | Cc1cc(-c2n[nH]c3ccc(C(=O)NN4CCCC(CO)(Oc5ccc(F)cc5)C4)cc23)ccn1 (stereo not shown) [compound 148, N-[3-(4-fluorophenoxy)-3-(hydroxymethyl)-1-piperidinyl]-3-(2-methyl-4-pyridinyl)-1H-indazole-5-carboxamide] |
| 6.03 | COCC1(Cc2ccccc2F)CCCN(NC(=O)c2ccc3[nH]nc(-c4ccnc(C)c4)c3c2)C1 (stereo not shown) [compound 149, N-[3-[(2-fluorophenyl)methyl]-3-(methoxymethyl)-1-piperidinyl]-3-(2-methyl-4-pyridinyl)-1H-indazole-5-carboxamide] |
